Data as given in patent US10363250B2, “Folate receptor binding conjugates of antifolates” (Purdue Research Foundation, priority 2008, dated 2019).
Where “and” joins values, the source holds several entries; their conditions need not be identical. Equal values may be shown once. One block for each compound: values may come before it.

What was measured:
[1] = biological target: T1, human FRs (KB cells) (Homo sapiens, UniProt P15328); assay: Cell-Based Relative Affinity Assay (competition with 3H-FA on adherent KB cells); type: binding; settings: for fold weaker affinity / fold lower RA: versus FA (or the Glu-bearing parent); for Relative Binding Affinity (37° C.): adherent KB cells; for Relative Binding Affinity (37° C.) / Relative Binding Affinity (0° C.): FA = 1; for change of RA with incubation temperature: on ice versus 37° C.
T1 construct: endogenous in cells; host or cells: KB cells
Description: Cell culture. Cells were grown continuously as a monolayer using folate-free RPMI medium (FFRPMI) containing 10% heat-inactivated fetal calf serum (HIFCS) at 37° C. in a 5% CO2/95% air-humidified atmosphere with no antibiotics. The HIFCS contained its normal complement of endogenous folates which enabled the cells to sustain growth in this more physiologically-relevant medium (Leamon et al. Proc Natl Acad Sci, USA 1991; 88:5572-6). All cell experiments were performed using FFRPMI containing 10% HIFCS (FFRPMI/HIFCS) as the growth medium unless otherwise specified.
Cell-Based Relative Affinity Assay. The relative affinity of each test article was determined based on a method initially described by Westerhoff et al. Mol Pharm 1995; 48:459-71) with modifications. Briefly, FR-positive KB cells were seeded in 24-well Falcon plates and allowed to form adherent monolayers (>75% confluent) overnight in FFRPMI/HIFCS. […] Cells were incubated for 1 h on ice or in an incubator at 37° C. (as specified in the figure legends) and then rinsed 3 times with 0.5 mL of PBS. Five hundred microliters of 1% sodium dodecyisulfate in PBS were added to each well; after 5 min, cell lysates were collected, transferred to individual vials containing 5 mL of scintillation cocktail, and then counted for radioactivity. […] Relative affinities were defined as described above.
Relative Affinity Assay Format. The in vitro RA assay described within measures a ligand's ability to compete with FA for binding to FRs. To date, cultured cells have most commonly been used as the FR source. However, herein described is the evaluation of the use of a cell-free, immobilized FR plate system for this assay. This latter method utilized a microtiter plate to which commercially-available bovine milk soluble FBP had been chemically anchored. Similar to the cell-based method, ^3H-FA can compete directly with increasing concentrations of test article for binding to the attached FRs; however, unlike the cell-based method, bound radiolabel can be conveniently “stripped” from the plate by rinsing with a mildly acidic saline solution. […] Likewise, values lower than unity reflect weaker affinity, and values higher than unity reflect stronger affinity.

[2] = biological target: Folate Receptor (Homo sapiens, UniProt P15328); settings: Table 1 footnote (a): Westerhoff et al. 1995; cited from earlier work
[3] = Remaining in solution during the RA assay period; type: physicochemical; settings: even at 30 μM, throughout the assay period
From the text: It is further appreciated that among the folate analogs, it was interesting to observe the importance of having a charged moiety in close proximity to the Pte group. For example, the RA value increased 90 to>300-fold when a Glu residue was attached to Pte, and N^10-propargyl 5,8-dideazapteroic acid, respectively. […] But, two exceptions were found. […] Therefore, without being hound by theory, it is believed that the lower RA value observed for EC216 may result from steric interference caused by the closer proximity of the drug (DAVLBH) to the Pte unit.

T1 sequence (P15328 25-234): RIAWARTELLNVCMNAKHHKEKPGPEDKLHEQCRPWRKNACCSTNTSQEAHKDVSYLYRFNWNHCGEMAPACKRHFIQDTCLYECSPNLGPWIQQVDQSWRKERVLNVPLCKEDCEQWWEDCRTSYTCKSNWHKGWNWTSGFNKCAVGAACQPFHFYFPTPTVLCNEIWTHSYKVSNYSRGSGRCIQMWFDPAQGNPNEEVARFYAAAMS
Chain of Folate Receptor (P15328 25-234): as above

fold weaker affinity / fold lower RA ([1]; KB cells, 10% serum, 37° C.): 14
Fold Weaker Affinity from FA ([1]; Table 1, 37° C., 10% serum): 14
Relative Binding Affinity (37° C.) ([1]; Table 1, 10% serum, 37° C.): 0.070
Compound: CN1c2c(nc(N)[nH]c2=O)NCC1CNc1ccc(C(=O)N[C@@H](CCC(=O)O)C(=O)O)cc1 (some centres unmarked) [5-methyl-tetrahydrofolate, 5-methyltetrahydrofolate]
Relative Binding Affinity (0° C.), value in parentheses [2]: (0.35)^(a)

fold weaker affinity / fold lower RA ([1]; KB cells, 10% serum, 37° C.): 50
Fold Weaker Affinity from FA ([1]; Table 1, 37° C., 10% serum): 50
Relative Binding Affinity (0° C.) ([1]; Table 1, KB cells): 0.000
Relative Binding Affinity (37° C.) ([1]; Table 1, 10% serum, 37° C.): 0.018
Compound: CN(Cc1cnc2nc(N)[nH]c(=N)c2n1)c1ccc(C(=O)N[C@@H](CCC(=O)O)C(=O)O)cc1 [Methotrexate]
Relative Binding Affinity (0° C.), value in parentheses [2]: 0.008

RA / competitive binding in words ([1]; KB cells, 10% serum, 37° C.): failed to block
Relative Binding Affinity (37° C.) ([1]; Table 1, 10% serum, 37° C.): 0.000
Compound: Nc1nc2ncc(C(=O)O)nc2c(=O)[nH]1 [Pterin-6-carboxylate]

variation of calculated RA values among serum conditions ([1]; 0 to 100% sera): 13%
Compound: Nc1nc2ncc(CNc3ccc(C(=O)N[C@@H](CCC(=O)O)C(=O)O)cc3)nc2c(=O)[nH]1 [Folic Acid]

Compound: CO[C@@]12[C@H](COC(N)=O)C3=C(C(=O)C(C)=C(NCCSSC[C@H](NC(=O)CC[C@@H](NC(=O)c4ccc(NCc5cnc6nc(N)[nH]c(=O)c6n5)cc4)C(=O)O)C(=O)O)C3=O)N1C[C@@H]1N[C@@H]12 [EC72, Pte-γGlu-Cys-L-MMC]
Fold Weaker Affinity form FA ([1]; Table 2, 37° C., 10% serum): 1.5
Relative Binding Affinity (0° C.) ([1]; Table 2, KB cells): 0.53
Relative Binding Affinity (37° C.) ([1]; Table 2, 10% serum, 37° C.): 0.59
change of RA with incubation temperature ([1]; no serum): increased with temperature

Compound: CC[C@]1(O)CC2CN(CCc3c([nH]c4ccccc34)[C@@](C(=O)OC)(c3cc4c(cc3OC)N(C)[C@H]3[C@@](O)(C(=O)NNC(=O)OCCSSC[C@H](NC(=O)c5ccc(NCc6cnc7nc(N)[nH]c(=O)c7n6)cc5)C(=O)O)[C@H](O)[C@]5(CC)C=CCN6CC[C@]43[C@@H]65)C2)C1 (stereo partly drawn) [EC216, Pte-Cys-L-DAVLBH]
fold decrease in RA versus EC145 ([1]; KB cells, 10% serum, 37° C., shortened spacer): 10
Fold Weaker Affinity form FA ([1]; Table 2, 37° C., 10% serum): 22
Relative Binding Affinity (37° C.) ([1]; Table 2, 10% serum, 37° C.): 0.046
remaining in solution [3]: remain in solution

Compound: Nc1nc2ncc(CNc3ccc(C(=O)N[C@@H](CCC(=O)NCCNC(=S)Nc4ccc(-c5c6ccc(=O)cc-6oc6cc(O)ccc56)c(C(=O)O)c4)C(=O)O)cc3)nc2c(=O)[nH]1 [EC17, Pte-γGlu-eda-FITC]
Fold Weaker Affinity form FA ([1]; Table 2, 37° C., 10% serum): 1.2
Relative Binding Affinity (0° C.) ([1]; Table 2, KB cells): 0.29
Relative Binding Affinity (37° C.) ([1]; Table 2, 10% serum, 37° C.): 0.45
change of RA with incubation temperature ([1]; no serum): increased with temperature

Compound: CC[C@]1(O)CC2CN(CCc3c([nH]c4ccccc34)[C@@](C(=O)OC)(c3cc4c(cc3OC)N(C)[C@H]3[C@@](O)(C(=O)N/N=C(\C)c5ccc(N6C(=O)CC(SC[C@H](NC(=O)[C@H](CC(=O)O)NC(=O)[C@H](CC(=O)O)NC(=O)[C@H](CCCNC(=N)N)NC(=O)[C@H](CC(=O)O)NC(=O)CC[C@H](NC(=O)c7ccc(NCc8cnc9nc(N)[nH]c(=O)c9n8)cc7)C(=O)O)C(=O)O)C6=O)cc5)[C@H](O)[C@]5(CC)C=CCN6CC[C@]43[C@@H]65)C2)C1 (some centres unmarked) [EC140, EC119-Hyd-DAVLBH]
RA (relative affinity) ([1]; KB cells, 10% serum (10% serum/FDRPMI)): 0.50
RA (relative affinity) ([1]; KB cells, 37° C., no serum): 0.12
fold change of RA with serum versus absence of serum ([1]; KB cells, serum versus no serum): 4 and 4.1
Fold Weaker Affinity form FA ([1]; Table 2, 37° C., 10% serum): 2.0
Relative Binding Affinity (37° C.) ([1]; Table 2, 10% serum, 37° C.): 0.50
